Measurements from patent US20080045500A1, “Nerve Regeneration Stimulator” (priority 2004, published 2008).
“Also recorded” adds a separate entry of the source.

Key:
[1] = test system: neural stem cells (BrdU positive cells) in hippocampal dentate gyrus; test: Nerve regeneration in rat hippocampal dentate gyrus: BrdU labelling, immunohistochemical count and GCL volume; type: in vivo; conditions: for GCL volume / Number of BrdU positive cells per hippocampus: SD rats, mean ± standard error, n=11; for Number of BrdU positive cells per hippocampus: vehicle 5490 ± 179, * p<0.05
Procedure: SD male SPF rats (6-week-old at the beginning of the experiments) purchased from Japan SLC, Inc. were bred under the same conditions as the mice in Example 2. Animals were subjected to experiments after acclimating for 5 days or longer following purchase.
BrdU (Sigma) for labeling neural stem cells was dissolved in PBS containing 0.014N HCl at a concentration of 10 mg/mL. BrdU was intraperitoneally administered at a dose of 50 mg/kg for three times (every 4 hours).
Injectable distilled water was orally administered at the same volume to animals in the vehicle control group.
The removed brain was sliced into sections as described in Example 2 for use in immunohistochemical studies.
Immunostaining of the brain tissues were carried out as described in Example 2.
For quantitation, four hippocampal sections (thickness of 40 μm, intervals of sections being 400 μm, four sections between −3.6 mm to −4.8 mm from bregma) were used for each individual. BrdU positive cells were counted in the same manner as Example 2. The GCL volume in each hippocampal section and the total number of BrdU positive cells in each hippocampal dentate gyrus were also determined as described in Example 2.
In Table 2, “*” indicates p<0.05, in comparison to the vehicle control group.

[2] = test system: neural stem cells (BrdU positive cells) in hippocampal dentate gyrus; test: Nerve regeneration in mouse hippocampal dentate gyrus: BrdU labelling, immunohistochemical count and GCL volume; type: in vivo
Procedure: C57BL/6 male SPF mice (8-week-old at the beginning of the experiments) purchased from Japan SLC, Inc. were used. Animals were subjected to experiments after acclimating in a breeding room under control at a temperature of 23±1° C. and illumination of 12 hours (7:00 to 19:00) for 5 days or longer. During breeding, animals had free access to solid food MF (Oriental Yeast Co., Ltd.) and water (tap water).
BrdU (Sigma) for labeling neural stem cells was used by dissolving in a phosphate buffer solution (PBS: Sigma) containing 0.007N HCl at a concentration of 5 mg/mL (Yoshimura et al., PNAS, 98, 5874-5879, 2001, Yoshimura et al., J. Clin. Invest., 112, 1202-1210, 2003). BrdU was intraperitoneally administered at a dose of 50 mg/kg (0.1 ml BrdU solution/10 g weight) for three times (every 4 hours).
Injectable distilled water was orally administered to animals of the vehicle control group.
The removed brain was sliced into coronal sections in a frozen state with a thickness of 40 μm using a sliding microtome (Leica, Model SM2000R, Nussloch). The sliced brain tissues were successively placed in 10 wells of a culture plate with a PBS solution containing sodium azide such that 10 sections were placed per well.
Immunostaining of the brain tissues were carried out by flotation (Yoshimura et al., PNAS, 98, 5874-5879, 2001, Yoshimura et al., J. Clin. Invest., 112, 1202-1210, 2003). Peroxidase method (ABC system, Vector Laboratories Inc.) was used for immunohistochemical detection of BrdU (Yoshimura et al., PNAS, 98, 5874-5879, 2001, Yoshimura et al., J. Clin. Invest., 112, 1202-1210, 2003). As a primary antibody to BrdU, rat anti-BrdU antibody (400-fold-diluted, Accurate Chemical & Scientific Corporation) was used. As a secondary antibody, rabbit IgG biotinylated antibody (200-fold-diluted, Vector Laboratories Inc.) was used
For quantitation, four hippocampal sections (intervals of sections being 400 μm, four sections between −1.4 mm to −2.6 mm from bregma) were used for each individual. All of the BrdU positive cells present in a subgranular zone (SGZ) and a granule cell layer (GCL) of the hippocampal dentate gyrus were determined. SGZ was defined as an area with a depth of 20 μm (a size corresponding to two cells) just below the GCL (on the side of hylus). […] The GCL area in each hippocampal section was determined as a cresyl violet positive GCL area using an image analyzing software (NIH, image ver. 1.60).
A volume of GCL (GCLV) was determined as a GCL volume in left hemisphere between −1.4 mm to −2.6 mm from bregma (Cavalieri technique). The number of BrdU positive cells in GCLV was calculated by multiplying the number of BrdU positive cells in the four hippocampal sections by 10. […]
All of the quantitative values are indicated in mean ±standard error (n=8 for each group).

[3] = test system: rat neural progenitor cells; test: Intracellular calcium concentration of fetal rat neural progenitor cells (Fluo-3); type: cell-based
Procedure: Cerebrums were isolated from fetuses obtained from 14.5 days pregnant SD female rats (Japan SLC, Inc.). Cells were dispersed by pipetting the tissue in cold L-15 medium. These cells were cultured in a suspension containing 20 ng/ml human basic fibroblast growth factor (bFGF) in serum-free D-MEM/F-12 medium (supplemented with B-27, N2 (both from Invitrogen) and gentamicin beforehand). The rat neural progenitor cells are known to form a neurosphere in this medium. After 5 to 7 days, the neurosphere was collected and pipetted to isolate the rat neural progenitor cells, followed by passage culture using the medium described above.
The neural progenitor cells were isolated from the neurosphere that was collected a day before the experiment and suspended in the bFGF-free medium otherwise same as described above. After the number of cells was counted, 50,000 cells each were suspended in 100 μL of the medium described above and dispensed into a 96-flat bottom culture plate. Intracellular Ca^++ concentration was determined using a commercially available kit (Calcium Kit-Fluo-3, Dojindo laboratories) according to the attached instruction. To some of the wells, atropine (muscarine receptor antagonist) was added to 25 μmol/L and cultured at 37° C. for 30 minutes beforehand. […]

[4] = test system: hippocampus of PTSD patients; conditions: administration to PTSD patients, reported by Bremner 2002; cited from earlier work
[5] = 0.5 mg/kg orally once a day for 28 days
[6] = 2 mg/kg orally once a day for 28 days

## COc1cc2c(cc1OC)C(=O)C(CC1CCN(Cc3ccccc3)CC1)C2.Cl (stereo not drawn) [Donepezil, 1-benzyl-4-[(5,6-dimethoxy-1-indanone)-2-yl]methylpiperidine hydrochloride]
[1]; [5]
  GCL volume: 1.27 ± 0.04 mm^3
  Number of BrdU positive cells per hippocampus: 6880 ± 436*
[1]; [6]
  GCL volume: 1.35 ± 0.04 mm^3
  Number of BrdU positive cells per hippocampus: 6694 ± 357*
[1]; rats, 0.5 and 2 mg/kg orally, 28 days
  Influence on the volume of rat hippocampal nerve cell layer (GCL), in words: no influence
[1]; rats, each donepezil group (0.5 and 2 mg/kg orally, 28 days), statistically significant
  Number of BrdU positive cells per hippocampus compared to vehicle group (in words): higher
[2]; C57BL/6 mice, 1 mg/kg orally once a day for 14 days, mean ± standard error, n=8, vehicle 1091 ± 56, * p<0.05
  Number of BrdU positive cells per hippocampus: 1528 ± 137*
[2]; mice, 1 mg/kg orally, 14 days
  Effect on the volume of hippocampal nerve cell layer (GCL), in words: no effect
[2]; mice, 1 mg/kg orally, 14 days, statistically significant, hydrochloride, 1 mg/kg
  Number of BrdU positive cells compared to vehicle group (in words): higher; also recorded: increased

## CN1[C@@H]2CC[C@H]1C[C@@H](OC(=O)C(CO)c1ccccc1)C2 (stereo partly drawn) [atropine]
[3]; 25 μmol/L pretreatment for 30 minutes
  Antagonism of the acetylcholine/carbachol induced intracellular Ca++ increase: completely antagonized; also recorded: completely inhibited

## C[N+](C)(C)CCOC(N)=O [carbachol]
[3]; 25 μmol/L agonist, Fluo-3 fluorescence
  Change of intracellular Ca++ concentration on stimulation: increases

## Fc1ccc([C@@H]2CCNC[C@H]2COc2ccc3c(c2)OCO3)cc1 [paroxetine]
[4]
  Volume of hippocampus of PTSD patients: increase
